According to patent publication EP3932395A1, “STABLE EMULSION CONTAINING AN ACTIVE PHARMACEUTICAL INGREDIENT BASED ON N(3-METHYL-2-OXO-2,3-DIHYDROBENZO[D]OXAZOL-5-YL)DODECANAMIDE, PRODUCTION AND USE” (Dr. August Wolff GmbH & Co. KG Arzneimittel, priority 2020, dated 2022):

Columns and labels:
[1] = Forced degradation studies; type: physicochemical; details: 0.05M NaOH, 5 min, room temperature
[2] = Simultaneous Thermal Analysis (STA = TGA + DTA); type: physicochemical; details: heated 10°C/min from 30°C to 300°C, nitrogen purge
Protocol: Simultaneous Thermal analysis (STA = TGA (Thermogravimetric Analysis) + DTA (Differential Thermal Analysis)) was performed in order to test the stability of N-(3 -methyl-2-oxo-2,3-dihydrobenzo[d]oxazol-5-yl)dodecanamide (hereinafter "the API") while heating. Approximately 10 mg of the sample was weighed into a ceramic crucible and placed into the chamber of a Perkin-Elmer STA 600 TGA/DTA analyzer at ambient temperature. The sample was then heated at a rate of 10°C/min from 30°C up to 300°C during which time the change in weight was monitored as well as DTA signal. The purge gas used was nitrogen at a flow rate of 20 cm^3/min.

[3] = Solubility screening with standard cream-base excipients; type: physicochemical; details: Ph.Eur. terms, 15°C to 25°C
Protocol: A solubility screening with standard excipients for preparation of a cream base (glycerol monostearate 60, cetyl alcohol, MCTs, paraffin, macrogol-20-glycerol monostearate, propylene glycol and water) was performed.
The following procedure was used to prepare the samples for solubility screen: • 1. Weigh out the API • 2. Add individual excipient (both solid and liquid excipients) • 3. Slurry either by roller at RT if liquid excipient, or by shaker at 60°C if the excipient was solid • 4. Shake or sonicate occasionally • 5. Check solubility visually, if API not dissolved, add more excipient • 6. Repeat steps 3 to 5 • 7. Samples prepared in steps 1 through 6 were centrifuged and removed from the top for HPLC. • 8. Dilute each sample to 1 mL. Only samples fully dissolved were checked by HPLC.
In the general notice of Ph.Eur. in statements of solubility the terms used have the following significance, referred to at a temperature between 15°C and 25°C.

[4] = Particle size distribution of the API by laser diffraction, pre and post jet-mill micronization; type: physicochemical
From the text: A Sturtevant qualification micronizer was used to reduce the particle size of the API. The mill was operated with tangential flow (i.e. the nitrogen supply and drug are fed in the same direction in the milling chamber). The material of API as received was fed into the jet mill using a Venturi feed system, where air was used to draw the feed material into the milling chamber. A product filter bag was affixed to the outlet of the mill, through which the exhausts and the milled drug substance collects. The milling conditions were set as follows: Grind gas: Dry nitrogen gas; Grind pressure: 80 psi; Feed pressure: 80 psi; Room conditions: Ambient.
A representative sample, dispersed at an adequate concentration in a suitable liquid, is passed through the beam of a monochromatic light source, preferably from a laser. The light scattered by the particles at various angles is measured by a multi-element detector, and numerical values relating to the scattering pattern are then recorded for subsequent analysis. These numerical scattering values are then transformed, using an appropriate optical model and mathematical procedure, to yield the proportion of total volume to a discrete number of size classes forming a volumetric particle size distribution (e.g., dso describes a particle diameter corresponding to 50% of the cumulative undersize distribution, i.e. 50% of the particles have a diameter that is smaller than a threshold value).
The Particle Size Distribution was determined using Malvern Mastersizer MicroPlus particle size analyzer (Malvern Instruments, UK) and 1% (v/v) Tween 80 in deionized water was used as dispersant for this experiment. The equipment was turned on and the following conditions were set: Analysis Model: Polydisperse; Presentation Code: Frauenhofer (5$$D); Stirring speed: 10 o'clock dial position.
The equipment was left to warm up for about 1 hour and approximately 100 mL of the dispersant was added to the sample dispersion unit. Backgrounds were first measured using the dispersant. A fresh sample was prepared by adding -20 to 50 mg API into ∼2 to 3 mL of the dispersant and this was sonicated for ∼5 minutes. The sample was added dropwise into the sample dispersion unit while stirring the dispersant until a suitable obscuration value was achieved and the particle size distribution could be measured. A minimum of three measurements were made for the pre and post micronized samples.
Alternatively, the Malvern Mastersizer 2000 can be used for the determination of Particle Size Distribution. In this case water is used as dispersant.
For upscaling purposes, the micronization process was transferred to a jet mill AS200 (Hosokawa Alpine, Germany) on which the following experiments were performed. Dry nitrogen and air were used as grind gas in order to determine the gas which is more suitable for the micronization process.

[5] = Forced degradation studies; type: physicochemical
From the text: Solid samples and sample solutions of N-(3-methyl-2-oxo-2,3-dihydrobenzo[d]oxazol-5-yl)dodecanamide were exposed to stress agents for a defined period and influence of stress on the compound were studied (i.e. the degradation).
The evaluation was expressed as relative percent with respect to t=0 result of unstressed sample (mass balance, % of peak areas).
The stress conditions were adjusted in such way that the degradation varied in a range of approx. 1 to 5% generated impurities.
The following stress conditions were applied: acidic and basic hydrolysis, oxidizing agent, temperature and photolytic conditions.
Solid sample - daylight, laboratory condition (VIS) - exposure time 7 days Solid sample - UV 254 nm, laboratory condition (UV) - exposure time 6 days
Solid sample, 70°C - exposure time 6 days
Sample solution, 3% H2O2, laboratory condition - exposure time 24 h
Sample solution, 0.1M HCI, 50°C - exposure time 24 h
Sample solution, 0.01-0.05M NaOH, 25°C (1M NaOH, 50°C, 1 h) - exposure time 45 min

[6] = tested on: Human lymphoma U937 cells; experiment: Cellular uptake of [3H]-AEA; type: cell-based; details: U-937, 100 nM AEA, 15 min pre-incubation, 15 min at 37°C
Protocol: Human lymphoma U937 cells were grown in RPMI 1640 medium (Invitrogen, Basel, Switzerland) supplemented with 10% fetal bovine serum, […] fungizone (amphotericin B), 100 units/mL penicillin, 100 µg/mL streptomycin, and 2 mM L-glutamine (all from Invitrogen) and selected for the cellular AEA uptake assay. 2.5 x 10^6 cells were collected and suspended in 250 µL of RPMI 1640 medium (Invitrogen, Basel, Switzerland) at 37°C using glass silanized vials. Cells were pre-incubated 15 min at 37°C in presence of the test compound in a concentration range of 10^-11 - 10^-5 M or in presence of the same amount (5 µL) of vehicle control (DMSO). Then a mixture of 0.5 nM [^3H]-AEA (60 Ci/mmol) (American Radiolabeled Chemicals, Inc., San Louis, MO, US) and 99.5 nM of nonradioactive AEA (Tocris Cookson Ltd., Bristol, UK) resulting in a final concentration of 100 nM AEA was added and samples were incubated at 37°C for another 15 minutes. The reaction was stopped by rapid filtration over UniFilter®-96 GF/C (Perkin Elmer, Boston MA, US) pre-soaked with PBS 0.25% BSA (w/v). […] Radioactivity was measured using a Perkin Elmer 1450 Microbeta TRILUX liquid scintillation counter. Results were expressed as % of AEA uptake versus cells treated with solvent and the EC50 and IC50 values were calculated from the sigmoidal curves, which were generated using the GraphPad Prism 5.0 (GraphPad Software, San Diego, CA, US).

[7] = first batch (5 g), post micronization, mean ± SD
[8] = first batch (5 g), pre micronization, mean ± SD
[9] = second batch (200 g), post micronization, mean ± SD
[10] = second batch (200 g), pre micronization, mean ± SD

purity of the measured sample after basic hydrolysis [1]: 89.50 % A | temperature up to which the material remained stable [2]: ~190 °C | solubility ([3]; in water): Practically insoluble (more than 10,000) | d90 ([4]; 150 g batch, jet mill AS200, normal air as grind gas, post micronization): 7.43 µm | d90 ([4]; 200 g batch, jet mill AS200, dry nitrogen as grind gas, post micronization): 8.92 µm | d10 [4, 7]: 1.11±0.05 µm | d50 [4, 7]: 2.97±0.05 µm | d90 [4, 7]: 6.76±0.36 µm | d10 [4, 8]: 7.53±1.55 µm | d50 [4, 8]: 33.71±18.61 µm | d90 [4, 8]: 106.06±56.69 µm | d90 ([4]; jet mill AS200, batch size 0.913 kg): 4.8 µm | d90 ([4]; jet mill AS200, batch size 1.035 kg): 5.5 µm | d90 ([4]; jet mill AS200, batch size 1.073 kg): 4.4 µm | d90 ([4]; jet mill AS200, batch size 3.60 kg): 7.6 µm | d10 [4, 9]: 1.96±0.11 µm | d50 [4, 9]: 4.98±0.10 µm | d90 [4, 9]: 10.29±0.44 µm | d10 [4, 10]: 26.90±3.65 µm | d50 [4, 10]: 69.71±9.95 µm | d90 [4, 10]: 127.67±18.59 µm | degradation under basic hydrolysis ([5]; 1M NaOH, 50°C, after 1 hour): completely degraded | time for which the stressed sample was stable ([5]; 3% H2O2 solution): at least 24 hours | stability conclusion ([5]; acidic condition): stable | stability conclusion ([5]; alkaline conditions): not stable | stability conclusion ([5]; oxidizing condition (H2O2)): stable | stability conclusion ([5]; photolytic conditions (VIS, UV)): photo stable | mass balance ([5]; sample solution, 0.1M HCl, 50°C, 24 h): 101.2% | mass balance ([5]; sample solution, 3% H2O2, 24 h): 98% | mass balance ([5]; solid sample, 70°C, 6 days): 102.6% | mass balance ([5]; solid sample, UV 254 nm, 6 days, relative to t=0 unstressed sample): 102.4% | mass balance ([5]; solid sample, daylight (VIS), 7 days, relative to t=0 unstressed sample): 100.2% | stability conclusion ([5]; temperature conditions (70°C)): thermo stable | EC50 [6]: 4 nM
SMILES: CCCCCCCCCCCC(=O)Nc1ccc2oc(=O)n(C)c2c1 [API, N-(3-methyl-2-oxo-2,3-dihydrobenzo[d]oxazol-5-yl)dodecanamide]
solubility ([3]; in MCTs): Very slightly soluble (from 1,000 to 10,000) | solubility ([3]; in propylene glycol): Very slightly soluble (from 1,000 to 10,000)
